Tests used:
Test in all cases: relative viability (nuclei count vs DMSO), 5 days (fraction); higher = more cells survive
[1] = compound: O=C(O)c1ccc2c(c1)nc(Nc1cccc(Cl)c1)c1ccncc12 [Silmitasertib] + CS(=O)(=O)N1CCN(Cc2cc3nc(-c4cccc5[nH]ncc45)nc(N4CCOCC4)c3s2)CC1 [Pictilisib] (partner 1 µM)
Method in brief: (§1)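 Lung cancer cell lines in 1536-well plates were dosed by pin tool the day after seeding, either with one drug alone or with a fixed anchor-drug dose plus five library-drug doses (not always all listed) in √10 steps. After 5 days, cells were fixed and their nuclei stained in one step (final 0.05% Triton X-100, 1% formaldehyde, 1 ug/ml Hoechst), then counted on 4× images. Relative viability is the nuclei count in treated wells divided by that in vehicle wells. Values are medians of duplicate plates.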

[2] = compound: O=C(O)c1ccc2c(c1)nc(Nc1cccc(Cl)c1)c1ccncc12 [Silmitasertib] + CC(=O)Nc1cccc(-n2c(=O)n(C3CC3)c(=O)c3c(Nc4ccc(I)cc4F)n(C)c(=O)c(C)c32)c1 [Trametinib] (partner 0.02 µM)
Method in brief: as §1

[3] = compound: O=C(O)c1ccc2c(c1)nc(Nc1cccc(Cl)c1)c1ccncc12 [Silmitasertib] + CC(=O)c1c(C)c2cnc(Nc3ccc(N4CCNCC4)cn3)nc2n(C2CCCC2)c1=O [Palbociclib] (partner 0.5 µM)
Method in brief: as §1

[4] = compound: O=C(O)c1ccc2c(c1)nc(Nc1cccc(Cl)c1)c1ccncc12 [Silmitasertib] + CCNC(=O)c1noc(-c2cc(C(C)C)c(O)cc2O)c1-c1ccc(CN2CCOCC2)cc1 [Luminespib] (partner 0.01 µM)
Method in brief: as §1

[5] = compound: O=C(O)c1ccc2c(c1)nc(Nc1cccc(Cl)c1)c1ccncc12 [Silmitasertib] + CS(=O)(=O)CCNCc1ccc(-c2ccc3ncnc(Nc4ccc(OCc5cccc(F)c5)c(Cl)c4)c3c2)o1 [Lapatinib] (partner 2 µM)
Method in brief: as §1

Cell Line | relative viability ([1]; first compound 0.04 µM) | relative viability ([1]; first compound 0.4 µM) | relative viability ([1]; first compound 1.265 µM) | relative viability ([1]; first compound 4 µM) | relative viability ([2]; first compound 0.04 µM) | relative viability ([2]; first compound 0.4 µM) | relative viability ([2]; first compound 1.265 µM) | relative viability ([2]; first compound 4 µM) | relative viability ([3]; first compound 0.04 µM) | relative viability ([3]; first compound 0.4 µM) | relative viability ([3]; first compound 1.265 µM) | relative viability ([3]; first compound 4 µM) | relative viability ([4]; first compound 0.04 µM) | relative viability ([4]; first compound 0.4 µM) | relative viability ([4]; first compound 1.265 µM) | relative viability ([4]; first compound 4 µM) | relative viability ([5]; first compound 0.04 µM) | relative viability ([5]; first compound 0.4 µM) | relative viability ([5]; first compound 1.265 µM) | relative viability ([5]; first compound 4 µM)
NCI-H647 | 0.546 | 0.462 | 0.33 | 0.153 | 0.524 | 0.57 | 0.399 | 0.431 | 0.505 | 0.376 | 0.33 | 0.282 | 0.159 | 0.268 | 0.241 | 0.133 | 1.37 | 0.801 | 0.716 | 0.328
NCI-H650 | 1.08 | 0.817 | 0.614 | 0.75 | 1.01 | 0.567 | 0.666 | 1.21 | 0.319 | 0.236 | 0.266 | 0.259 | 0.886 | 0.599 | 0.436 | 0.457 | 1.13 | 0.722 | 0.525 | 0.272
NCI-H661 | 0.461 | 0.298 | 0.243 | 0.271 | 0.645 | 0.605 | 0.667 | 0.615 | 0.421 | 0.511 | 0.407 | 0.359 | 0.959 | 1.04 | 0.838 | 0.825 | 0.522 |  | 0.477 | 0.661
NCI-H727 | 0.608 | 0.392 | 0.381 | 0.32 | 0.415 | 0.338 | 0.328 | 0.348 | 0.64 | 0.529 | 0.648 | 0.681 | 0.332 | 0.274 | 0.404 | 0.358 | 1.05 | 0.608 | 0.855 | 0.527
NCI-H838 | 0.463 |  | 0.434 | 0.359 | 0.673 | 0.489 | 0.463 | 0.309 | 0.253 | 0.25 | 0.18 | 0.199 | 0.29 |  | 0.338 | 0.217 | 1.28 |  | 0.753 | 0.465
NCI-H1355 | 0.419 |  | 0.367 | 0.293 | 0.454 |  | 0.393 | 0.367 | 0.403 |  | 0.358 | 0.366 | 0.776 |  | 0.69 | 0.576 | 1.08 |  | 0.883 | 0.726
NCI-H1395 | 0.623 | 0.492 | 0.587 | 0.427 | 1.07 | 0.809 | 1.03 | 1.14 | 0.631 | 0.617 | 0.592 | 0.597 | 0.635 | 0.562 | 0.539 | 0.713 | 1.29 | 0.672 | 0.919 | 0.68
NCI-H1437 | 0.42 |  | 0.261 | 0.217 | 0.493 | 0.466 | 0.353 | 0.274 | 0.305 | 0.26 | 0.221 | 0.222 | 1.17 | 1.04 | 1.03 | 0.823 | 0.865 |  | 0.483 | 0.347
NCI-H1650 | 0.781 | 0.459 | 0.348 | 0.211 | 0.769 | 0.56 | 0.428 | 0.256 | 0.5 | 0.436 | 0.25 | 0.186 | 0.187 | 0.203 | 0.192 | 0.21 | 1.4 | 0.825 | 0.671 | 0.23
NCI-H1651 | 0.615 | 0.657 | 0.669 | 0.543 | 0.881 | 0.714 | 0.84 | 0.848 | 0.495 | 0.516 | 0.534 | 0.528 | 0.985 | 1.01 | 0.916 | 0.71 | 1.08 | 0.997 | 0.99 | 0.626
NCI-H1666 | 0.465 | 0.499 | 0.321 | 0.307 | 0.915 | 0.728 | 0.876 | 0.752 | 0.617 | 0.654 | 0.578 | 0.61 | 1.04 | 0.955 | 0.708 | 0.634 | 0.734 | 0.564 | 0.452 | 0.319
NCI-H1734 | 0.514 |  | 0.424 | 0.313 | 0.737 | 0.664 | 0.63 | 0.581 | 0.343 | 0.326 | 0.323 | 0.36 | 0.185 | 0.209 | 0.186 | 0.202 | 1.14 |  | 0.948 | 0.785
NCI-H1755 | 0.431 | 0.441 | 0.441 | 0.375 | 0.74 | 0.779 | 0.826 | 0.864 | 0.436 | 0.443 | 0.456 | 0.447 | 0.378 | 0.627 | 0.364 | 0.525 | 1.03 | 0.979 | 1.07 | 1.16
NCI-H1792 | 0.28 | 0.294 | 0.283 | 0.286 | 0.407 | 0.478 | 0.432 | 0.562 | 0.674 | 0.574 | 0.708 | 0.698 | 0.452 | 0.385 | 0.57 | 0.375 | 0.886 | 0.711 | 0.874 | 0.608
NCI-H1793 | 0.374 | 0.247 | 0.274 | 0.31 | 0.503 | 0.425 | 0.371 | 0.488 | 0.309 | 0.319 | 0.32 | 0.303 | 0.21 | 0.152 | 0.157 | 0.161 | 0.979 | 0.728 | 0.437 | 0.488
NCI-H1915 | 1.02 |  | 0.956 | 0.408 | 0.334 |  | 0.304 | 0.254 | 0.58 |  | 0.517 | 0.297 | 0.83 |  | 0.77 | 0.669 | 0.994 |  | 1.02 | 0.397
NCI-H1944 | 0.361 | 0.442 | 0.364 | 0.381 | 0.419 | 0.403 | 0.481 | 0.429 | 0.335 | 0.359 | 0.314 | 0.383 | 0.549 | 0.653 | 0.765 | 0.793 | 0.826 | 0.807 | 0.822 | 0.816

Source: the supplement of paper PMC10307832
